Source: US4883800A, “Quinazoline derivatives and process for their production” (Fujisawa Pharmaceutical Co., Ltd., priority 1985, dated 1989)

Columns and labels:
aldose reductase = target: T1, aldose reductase (Oryctolagus cuniculus, UniProt P15122); experiment: Enzymatic assay method: aldose reductase inhibition (in vitro test); assay type: biochemical; settings: rabbit lens enzyme; D,L-glyceraldehyde, NADPH; 35° C., 2 minutes; pH 6.2 buffer; read-out: IC50: concentration at which 50% of the aldose reductase activity is inhibited
T1 construct: The supernatant was dialyzed against 2 liters of 0.05M of saline solution and the dialyzed solution was used as the enzyme solution; from tissue; host or cells: rabbit eye lens, 10,000 G supernatant of homogenate, dialyzed
Description: (1) Enzymatic assay method:
0.5 M Phosphate buffer (pH 6.2)
2.0 M Lithium sulfate 0.2 ml
The compound of this invention mentioned
(dissolved in physiological saline
Enzyme solution [aldose reductase solution,
prepared as described below (2)]
60 mM D,L-glyceraldehyde 0.05 ml
2.5 mM Nicotinamide adenine
dinucleotide phosphate (reduced form)
The above reactants were mixed and reacted at 35° C. for 2 minutes and the decrease in amount of NADPH was measured with an Automatic Reaction Rate Analyzer Model LKB-8600 (Trademark, made by LKB Producter A.B.). The enzyme activity at a change in absorbance of 0.001 per minute was taken as unity.
(2) Method for preparing an enzyme solution
Rabbit eyes were enucleated and the lenses were collected. The lenses were homogenized with 3 volumes of distilled water at 4° C. (All the subsequent procedures were also performed at 4° C.) and centrifuged at 10,000 G for 60 minutes. The supernatant was dialyzed against 2 liters of 0.05M of saline solution and the dialyzed solution was used as the enzyme solution.
Each IC50 value (M) represents the concentration of the compounds of this invention at which 50% of the aldose reductase activity is inhibited.

[1] = system: sorbitol accumulation in sciatic nerve; experiment: Inhibitory effect of drug on sorbitol accumulation in sciatic nerve (in vivo test); parameters: species or system Male Sprague-Dawley rats (streptozotocin-induced diabetic); settings: 32 mg/kg, oral, once a day for five days; 6 hours after final administration; streptozotocin-diabetic rats
Description: Inhibitory effect of drug on sorbitol accumulation in sciatic nerve:
Male Sprague-Dawley rats (6 weeks old) were fasted for 24 hours and then made diabetic by the intraperitoneal injection (2 ml/kg) of streptozotocin (75 mg/kg) dissolved in 2 mM citrate buffer (pH 4.5).
Seven days after streptozotocin injection, blood glucose value was measured by taking blood from tail vein. Rats with blood glucose value of >300 mg/dl were used as streptozotocin-induced diabetic animals.
Diabetic animals were divided at random into two groups (group (A) and group (B)).
Drug was suspended in 0.5% aqueous methylcellulose solution and orally administered to each rat in group (A) once a day for five days [hereinafter referred to as drug-treated diabetic rats].
Each of rats in group (B) and of normal rats was given the vehicle (0.5% aqueous methylcellulose solution) [hereinafter referred to as untreated diabetic rats and control rats, respectively].
Six hours after final administration of drug or vehicle, animals were killed and sorbitol content in sciatic nerve was assayed. Inhibitory percent of drug on sorbitol accumulation in sciatic nerve was calculated as follows. [formula]
S: Sorbitol content in sciatic nerve of untreated diabetic rats.
SD : Sorbitol content in sciatic nerve of drug-treated diabetic rats.
N: Sorbitol content in sciatic nerve of control rats.

| IC50 (aldose reductase) [nM] | Structure (SMILES) | I: Inhibitory percent on sorbitol accumulation in sciatic nerve [1] [%] |
| --- | --- | --- |
| 5.4 | O=C(O)Cn1c(=O)n(Cc2ccc(Cl)c(Cl)c2)c(=O)c2ccccc21 [Compound A, 2-[3-(3,4-Dichlorobenzyl)-1,2,3,4-tetrahydro-2,4-dioxoquinazolin-1-yl]acetic acid] | – |
| 4.8 | O=C(O)Cn1c(=O)n(Cc2ccc(Br)cc2F)c(=O)c2ccccc21 [Compound B, 2-[3-(4-Bromo-2-fluorobenzyl)-1,2,3,4-tetrahydro-2,4-dioxoquinazolin-1-yl]acetic acid] | – |
| 5.4 | COc1ccc2c(=O)n(Cc3ccc(Br)cc3F)c(=O)n(CC(=O)O)c2c1 [Compound C, 2-[3-(4-Bromo-2-fluorobenzyl)-1,2,3,4-tetrahydro-7-methoxy-2,4-dioxoquinazolin-1-yl]acetic acid] | – |
| 5.3 | O=C(O)Cn1c(=O)n(Cc2ccc(I)cc2F)c(=O)c2ccccc21 [Compound D, 2-[3-(2-Fluoro-4-iodobenzyl)-1,2,3,4-tetrahydro-2,4-dioxoquinazolin-1-yl]acetic acid] | 101 |
| 3.1 | O=C(O)Cn1c(=O)n(Cc2ccc(Br)cc2F)c(=O)c2ccc(Br)cc21 [Compound E, 2-[7-Bromo-3-(4-bromo-2-fluorobenzyl)-1,2,3,4-tetrahydro-2,4-dioxoquinazolin-1-yl]acetic acid] | 103 |
| – | O=C(O)Cn1c(=O)n(Cc2ccc(Br)cc2F)c(=O)c2ccc(Cl)cc21 [Compound F, 2-[3-(4-Bromo-2-fluorobenzyl)-7-chloro-1,2,3,4-tetrahydro-2,4-dioxoquinazolin-1-yl]acetic acid] | 99 |
